Patent publication US20230277554A1, “COMPOSITION CONTAINING NICKEL-SUPEROXIDE DISMUTASE AND THE LIKE USEFUL FOR HAIRCARE” (priority 2020, published 2023)

Tested on: Cutibacterium acnes
Test: Cutibacterium acnes growth inhibition
Assay type: cell-based
Method: Cutibacterium acnes is a troublesome anaerobic pathogen. TUN-828® has the function of forming oxygen internally, so we tried to explore whether such a mechanism can inhibit the growth of Cutibacterium acnes and thereby promote the formation of Staphylococcus epidermidis thus form a micro-ecological environment beneficial to the scalp. […] In 24 hours, TUN-828® can inhibit more than 93% Cutibacterium acnes and more than 99% in 48 hr.

Substance: Nickel Bis (Hydroxy Diphenyl MethyIPyrrolidino Methy) Pyridinediy1 t-Butylisocyano Perchlorate [TUN-828®]
- inhibition of Cutibacterium acnes (24 hours): more than 93%
- inhibition of Cutibacterium acnes (48 hr): more than 99%
